Measured values published in patent US9353082B2, “Pharmaceutical compounds” (BIAL—PORTELA & CA, S.A., priority 2008, dated 2016).

Legend:
FAAH [1] = biological target: T1, FAAH (Mus musculus, UniProt O08914); assay: In vivo FAAH inhibition after oral dosing, remaining activity in brain homogenate (BRh, central nervous tissue); parameters: species or system NMRI mice; conditions: 8 h
T1 construct: A fragment of liver, left lung lobe and brain without cerebellum were removed; from tissue; host or cells: male NMRI mice; brain (without cerebellum) and liver homogenates
T1 sequence (O08914 1-579): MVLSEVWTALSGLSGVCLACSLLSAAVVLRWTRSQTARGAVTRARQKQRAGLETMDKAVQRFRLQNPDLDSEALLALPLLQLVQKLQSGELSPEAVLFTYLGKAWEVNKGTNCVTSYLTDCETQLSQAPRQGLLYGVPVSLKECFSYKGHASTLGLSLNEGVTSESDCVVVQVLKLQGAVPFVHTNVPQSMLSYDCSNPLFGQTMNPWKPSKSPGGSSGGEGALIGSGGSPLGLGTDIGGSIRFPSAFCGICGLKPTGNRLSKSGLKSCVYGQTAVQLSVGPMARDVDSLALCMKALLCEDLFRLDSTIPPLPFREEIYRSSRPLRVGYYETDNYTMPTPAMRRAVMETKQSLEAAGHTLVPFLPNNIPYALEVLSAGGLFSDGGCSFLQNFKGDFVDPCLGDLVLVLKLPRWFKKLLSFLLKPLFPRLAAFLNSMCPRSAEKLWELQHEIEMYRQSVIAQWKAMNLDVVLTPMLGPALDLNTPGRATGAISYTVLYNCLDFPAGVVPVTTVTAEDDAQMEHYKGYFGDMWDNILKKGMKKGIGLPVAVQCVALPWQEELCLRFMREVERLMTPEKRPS
How it was run: (§1)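 Male NMRI mice, fasted overnight, got 30 or 3 mg/kg compound orally (0.5% CMC suspension or water) and were compared with vehicle controls. Brain (no cerebellum) and liver homogenates were incubated with 2 μM AEA plus 5 nM 3H-AEA at 37 °C, 10 min for brain and 7 min for liver. Remaining FAAH activity is % of vehicle after blank subtraction.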

FAAH [2] = biological target: T1, FAAH; assay: In vivo FAAH inhibition after oral dosing, remaining activity in liver homogenate (LVh, peripheral tissue); parameters: species or system NMRI mice; conditions: 8 h
How it was run: as §1

carboxylesterase (CE) = assay: Carboxylesterase (CE) activity in mouse liver microsomes (LVms), p-nitrophenyl acetate; assay type: biochemical; conditions: 10 uM compound, read 10 min after substrate, remaining CE activity
Experimental: FAAH inhibition was determined as described above. Inhibition of monoacylglycerol lipase (MAGL) and carboxylesterase (CE) was performed according to the protocols described below. The controls for both in vitro and in vivo were the reaction mix minus the test compounds. Therefore, a low value in Table 2 below for the test compounds indicates a strong inhibitor.
CE activity measurement is based on the formation of p-nitrophenol from p-nitrophenyl acetate. Briefly, in 96-well plates 8 μg/ml of rat or mouse liver microsomes (LVms) were incubated with 10 μM FAAH inhibitors for 15 min and then the substrate, p-nitrophenyl acetate, was added to a final concentration of 1 mM. The plate was read at 405 nm 10 min after substrate addition for the appearance of p-nitrophenol using a spectrophotometer. The carboxylesterase activity in microsome extracts without inhibitor added were set at 100% as control and the remaining CE activities after incubation with inhibitors were calculated relative to the control.

COc1cccc(-c2cn(C(=O)N3CCCc4ccccc43)cn2)c1 [Compound 39, (3,4-dihydroquinolin-1(2H)-yl)(4-(3-methoxyphenyl)-1H-imidazol-1-yl)methanone]
In Vivo BRh 3 mg/kg 8 h, remaining FAAH activity (FAAH [1]; brain homogenate, 3 mg/kg): 120.6 % of control
FAAH BRh 3 mg · kg · 8 h (FAAH [1]; in vivo, mouse brain, 3 mg/kg oral, remaining enzymatic activity): 120.6 % of control
FAAH LVh 3 mg · kg · 8 h (FAAH [2]; in vivo, mouse liver, 3 mg/kg oral, remaining enzymatic activity): 101.1 % of control
In Vivo LVh 3 mg/kg 8 h, remaining FAAH activity (FAAH [2]; liver homogenate, 3 mg/kg): 101.1 % of control
CE Mou LVms 10 uM 10 min (carboxylesterase (CE)): 84.3 % of control
